The values that follow come from patent US20090042861A1, “Prophylactic or Therapeutic Agent for Depression or Anxiety Disorder” (Takeda Pharmaceutical Company Limited, priority 2005, published 2009).

In assay [1] the test system is male Wister (Jcl) rats. Nature of the assay: Water-drinking conflicting test. The note with it: Example 1. The assay is classed as in vivo, rat.
Description: Animal: male Wister (Jcl) rats were purchased at the age of 8 weeks old, and used at the age of 9 weeks old.
First, rats were put in a separate cage, and abstained from water for two days under light-dark (12-hour cycle) condition. On the day of experiment, rats were habituated to the experiment room for more than 60 minutes, and administered intraperitoneally with 30 mg/kg of compound A, 30 mg/kg of melatonin or vehicle, and then test was carried out 30 minutes after the administration.
The drug used (compound A, melatonin) was suspended in 0.5% methylcellulose physiological saline to adjust dosage to 2 mL/kg, and administered intraperitoneally. To the vehicle administration group, a 0.5% methylcellulose physiological saline was administered in the same way. All administrations and trials were performed between 9:00 and 12:00.
In the present experiment, when the animals pre-raised under a water-deprived condition drink water, they are placed in a conflicting state that they get electroshocked under the following condition.
Test Time: 300 seconds, Shock Condition: in case either 20 times of lick frequency or 2 seconds of lick time is satisfied
Shock ON Time: 2 seconds, Time-out: 180 seconds, Stimulus Intensity: 0.6 mA
Animal: male Wister (Jcl) rats were purchased at the age of 8 weeks old, and used at the age of 9 weeks old. Drug Administration Group and Test Method: Test was carried out for the following conditions. (each group n=10)
Compound A and Diazepam were suspended in 0.5% methylcellulose solution to adjust dosage to 2 mL/kg, and administered intraperitoneally. To control group, a 0.5% methylcellulose physiological saline for injection was administered as vehicle. As a drug solution to be combined, a drug solution having twice concentration of final concentration was prepared, and adjusted to final concentration by mixing equal amounts. A dose of 2 mL/kg was administered intraperitoneally, respectively. All administrations and trials were performed between 9:00 and 13:00.
First, rats were put in a separate cage, and abstained from water for two days under light-dark (12-hour cycle) condition. On the day of experiment, rats were habituated to the experiment room for more than 60 minutes, and each drug was administered intraperitoneally, and then test was carried out 30 minutes after the administration.
Significant difference test was performed with using Williams' test for vehicle administration group and multigroup drug administration groups. t-Test was used for vehicle administration group and single drug administration groups. A dose of compound A (0.3, 10 and 30 mg/kg) and 0.3 mg/kg of Diazepam were administered in combination.
Another assay deals with male ICR (Jcl) mice. Nature of the assay: Mouse tail suspension test. The note with it: for moving power at the trial of tail suspension test: FIGS. 9, 10. The class given is in vivo. On the procedure:
Action on immobility and moving power in a single application test of Paroxetine and compound A Used Animals: male ICR (Jcl) mice of 6 weeks old were used. Drug Administration Group and Test Method: Test was carried out for the following conditions. (each group n=12)
Paroxetine was dissolved in 0.5% methylcellulose physiological saline, and compound A was suspended in 0.5% methylcellulose aqueous solution for injection. To control group, a 0.5% methylcellulose physiological saline for injection was administered as vehicle. A dose of 20 ml/kg was administered intraperitoneally, respectively. Administration was carried out 30 minutes before trial of tail suspension.
Animals were put in a 5-row-cage with 8 each cage, and fully habituated. Drug administrations and trials were performed between 13:00 and 17:00.
An automated measuring equipment made according to the method of Steru (Psycopharmacology 85, 367-370, 1985) was used for measurement. The mouse was suspended by the tail in a soundproof box (16 cm×38 cm×33 cm) divided individually, and then the immobility rate of 10 minutes duration was measured. Tail suspension was carried out by fixing a 5 cm wire to a sensor and suspending the mouse with fixing its tail with a tape at the end of the wire. By weighing every 10 msec, the movement of the mouse was calculated through A/D converter as moving power for one second. The moving power of less than 1% of body weight of mouse was considered to be in the immobile state, and the immobility rate for every one minute was measured. Test was carried out for 10 minutes, and all the experiments were controlled with personal computer (NEC-9801).
Action on immobility and moving power in a combined application test of Paroxetine and compound A Used Animals: male ICR (Jcl) mice of 6 weeks old were used. Drug Administration Group and Test Method: Test was carried out for the following conditions. (each group n=15-16)
Paroxetine was dissolved in 0.5% methylcellulose physiological saline, and compound A was suspended in 0.5% methylcellulose aqueous solution for injection. To control group, a 0.5% methylcellulose physiological saline for injection was administered as vehicle. As a drug solution to be combined, a drug solution having twice concentration of final concentration was prepared, and adjusted to final concentration by mixing equal amounts. A dose of 20 ml/kg was administered intraperitoneally, respectively. Administration was carried out 30 minutes before trial of tail suspension.

Assay [2] deals with male Wister (Jcl) rats. Nature of the assay: Elevated plus-maze test. The assay is classed as in vivo, rat. The note with it: Example 3. On the procedure: Animal: male Wister (Jcl) rats were purchased at the age of 5 weeks old, and used at the age of 6 weeks old.
An elevated plus-maze test equipment having arm 50 cm long by 10 cm wide was used. Its height was 40 cm, and the height of closed arm was adjusted to the same. Black was used as the color of wall. Lighting in experiment room was set to 5 lux of illuminance on the equipment.
The animals were handled from 2 days before test. Test was carried out between 8 a.m. and […]., and the animals were naturalized in the conduct test room at a measurement illuminance from 1 hour before the start of test.
The drug used (compound A, melatonin) was suspended in 0.5% methylcellulose physiological saline to adjust dosage to 2 mL/kg, and administered intraperitoneally. To the vehicle administration group, a 0.5% methylcellulose physiological saline was administered in the same way.
In the elevated plus-maze test, the animal was put in the central region of maze with the head to the direction of closed arm, and the conduct of 5 minutes duration was observed. Measurement items were number of entries into open arms and time spent in open arms which were used as an indicator of anxiety conducts, and it was considered that the more the number of entries into open arms, time spent in open arms and dipping frequency are, the less the anxiety conducts are. Further, the number of entries into closed arms was counted, which was used as an indicator of amount of motor-activity. […] Test was performed with n=10 for each group. Trial was carried out over 2 days, and 2 days' data were summed up as one test.
Significant difference test was performed with using Williams' test for vehicle administration group and multigroup drug administration groups.

Molecules are shown by their SMILES.

In the case of `CCC(=O)NCC[C@@H]1CCc2ccc3c(c21)CCO3` [Compound A, (S)-N-[2-(1,6,7,8-Tetrahydro-2H-indeno[5,4-b]furan-8-yl)ethyl]propionamide], the lick frequency entry in the assay on male Wister (Jcl) rats [1] (30 mg/kg intraperitoneally, test 30 minutes after administration, vs vehicle group, Williams' test, FIG. 1) is given as “significant increasing effect”. In the assay on male Wister (Jcl) rats [1] (30 mg/kg intraperitoneally, test 30 minutes after administration, vs vehicle group, Williams' test, FIG. 2), the shock frequency entry was “significant increasing effect”. In addition, the immobility result in the assay on male ICR (Jcl) mice (Example 4, single application, 3, 10 and 30 mg/kg (i.p.), 30 minutes before trial, FIGS. 7, 8) is recorded as “didn't have an affect”. The “moving power at the trial of tail suspension test” value with male ICR (Jcl) mice (Example 4, single application, 3, 10 and 30 mg/kg (i.p.)) was “didn't have an affect”. Besides, the “effect on the antidepressant action of Paroxetine” value with male ICR (Jcl) mice (Example 5, Compound A 1, 3 and 10 mg/kg with Paroxetine 1 mg/kg (i.p.)) is listed as “enhances the antidepressant action of Paroxetine”. In addition, the “time spent in open arms” value in the assay with male Wister (Jcl) rats [2] (intraperitoneal, 5 minutes observation, vs vehicle group, FIG. 5) is listed as “an increase”. Moreover, the “number of entries into open arms” value with male Wister (Jcl) rats [2] (intraperitoneal, 5 minutes observation, vs vehicle group, FIG. 6) was “an increase”.
Turning to `CN1C(=O)CN=C(c2ccccc2)c2cc(Cl)ccc21` [Diazepam], the “effect in this system (control drug)” value is on record as “exhibits an effect” in the assay on male Wister (Jcl) rats [1] (control drug, dose not given) and “exhibits an effect” in the assay with male Wister (Jcl) rats [2] (control drug, dose not given).
Regarding `Fc1ccc([C@@H]2CCNC[C@H]2COc2ccc3c(c2)OCO3)cc1` [Paroxetine], in the assay with male ICR (Jcl) mice (Example 4, single application, 0.3, 1, 3 and 10 mg/kg (i.p.), vs vehicle group), the “moving power at the trial of tail suspension test” value is on record as “increase a little”.
Consider `COc1ccc2[nH]cc(CCNC(C)=O)c2c1` [melatonin], for which the anti-conflicting effect entry in the assay on male Wister (Jcl) rats [1] (30 mg/kg intraperitoneally, test 30 minutes after administration, vs vehicle group, Williams' test) is given as “a little anti-conflicting effect was observed, but it was not a significant effect”. Moreover, the “action in elevated plus-maze (open arm entries and time)” value in the assay on male Wister (Jcl) rats [2] (intraperitoneal, vs vehicle group, Williams' test) is recorded as “a significant action was not observed”.
